Experimental data from PMC3554773, “Screening of a Specific Peptide Binding to VPAC1 Receptor from a Phage Display Peptide Library” (PLoS ONE, 2013).
No end group written: not given here.

Columns and labels:
[1] = molecular target: T1, VPAC1 receptor (CHO-K1/VPAC1 cells) (Homo sapiens, UniProt P32241); assay: in vitro subtractive panning of 12-mer phage display peptide library on CHO-K1/VPAC1 cells, DNA sequencing of clones; assay type: binding; settings: 60 phage clones randomly selected after fourth round of panning; three lacked exogenous sequence
T1 construct: expressed in transfected cells
T1 sequence (P32241 31-457): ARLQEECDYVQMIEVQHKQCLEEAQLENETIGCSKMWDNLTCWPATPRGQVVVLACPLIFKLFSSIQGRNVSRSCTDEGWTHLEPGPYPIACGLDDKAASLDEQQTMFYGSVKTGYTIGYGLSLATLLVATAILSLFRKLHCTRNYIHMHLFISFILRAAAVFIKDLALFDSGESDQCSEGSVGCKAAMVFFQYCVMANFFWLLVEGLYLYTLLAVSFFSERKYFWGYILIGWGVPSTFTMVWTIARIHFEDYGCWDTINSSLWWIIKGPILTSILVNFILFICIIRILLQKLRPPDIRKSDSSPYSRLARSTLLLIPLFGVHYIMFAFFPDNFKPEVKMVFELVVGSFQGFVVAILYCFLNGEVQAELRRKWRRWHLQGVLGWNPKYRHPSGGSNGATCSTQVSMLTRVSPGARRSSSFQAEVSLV

[2] = molecular target: T1, VPAC1 receptor (CHO-K1/VPAC1 cells); assay: cellular ELISA, binding of phage clones to CHO-K1/VPAC1 versus wild-type CHO-K1 cells; settings: 1×10^10 pfu/well, 37°C, 2 h, HRP-anti-M13, glutaral-fixed cells, triplicate, p<0.01
[3] = molecular target: T1, VPAC1 receptor (CHO-K1/VPAC1 cells); assay: competitive inhibition ELISA: binding of positive phage clone VP2 to CHO-K1/VPAC1 cells, inhibited by synthetic peptide
Description: Competitive binding inhibition between the positive phage clone and its encoded peptide was evaluated in this study using the competitive inhibition ELISA method. The procedure was similar to that of the cellular ELISA mentioned above in “Cell enzyme-linked immunosorbent assay”. Briefly, CHO-K1/VPAC1 cells were incubated with 100 µl of synthetic peptide encoded by the positive phage clone at various concentrations (0, 0.0001, 0.001, 0.01, 0.1, 1, 10 and 100 µg/ml) in a 96-well plate after it was blocked with 2% BSA. Subsequently, 1×10^10 pfu homologous positive phage clones was added to the cells and incubated at 37°C for 2 h. The unbound phages were washed away, and an HRP-conjugated anti-M13 monoclonal antibody was used to detect the bound phages as described above. The rate of inhibition was calculated using the following formula: rate of inhibition = (A value of inhibition control – A value of inhibition)/A value of inhibition control×100%. An unrelated peptide corresponding to an unrelated phage was used as a negative control.

Sequence | Frequency (number of the peptide sequence appeared in the whole selected phage clones) [1] | binding affinity to CHO-K1/VPAC1 cells compared with CHO-K1 cells (OD450 nm) [2] | further results
AYTTVPYMATLP [VP9] | 1 |  | 
DTFHSPLVALVS [VP5] | 5 | higher affinity to CHO-K1/VPAC1 cells than CHO-K1 cells | 
DTGHSPEPGKVP [VP13] | 1 |  | 
ETVRQAEELFYV [VP7] | 1 |  | 
GFRFGALHEYNS [VP2] |  |  | IC50 of VP2 peptide compared with IC50 of VIP ([3]; inhibition of phage VP2 binding to CHO-K1/VPAC1 cells, VIP value from Figure 5A): significantly lower than the IC50 of VIP; IC50 ([3]; peptide 0-100 µg/ml, 1×10^10 pfu phage VP2, 37°C, 2 h): ~13.2 nM
GGSIAASELEYY [VP10] | 2 | higher affinity to CHO-K1/VPAC1 cells than CHO-K1 cells | 
GSFHSPLLAYVS [VP12] | 1 |  | 
GTFHSPLLDHKS [VP14] | 1 |  | 
GWLRSPSLLFSN [VP16] | 2 | higher affinity to CHO-K1/VPAC1 cells than CHO-K1 cells | 
GYTFQPLNEWAI [VP18] | 1 |  | 
HSTLKLGALTNY [VP11] | 1 |  | 
NSIALINDTHKR [VP3] | 2 |  | 
SFRFFPLDMWPH [VP8] | 5 | higher affinity to CHO-K1/VPAC1 cells than CHO-K1 cells | 
TVKYSTLVEWPY [VP1] | 8 | higher affinity to CHO-K1/VPAC1 cells than CHO-K1 cells | 
TVTFAPLRMWHP [VP15] | 1 |  | 
TWKFEPLGTFID [VP4] | 3 |  | 
TYTFRPLYEPPL [VP17] | 1 |  | 
YTSHFPLETWPQ [VP6] | 5 | higher affinity to CHO-K1/VPAC1 cells than CHO-K1 cells | 
